# Experimental data as given in patent US9266834B2, “1, 4-disubstituted 3-cyano-pyridone derivatives and their use as positive allosteric modulators of MGLUR2-receptors” (JANSSEN PHARMACEUTICALS, INC., priority 2006, dated 2016).
# Target: T1, human mGluR2 receptor (Homo sapiens, UniProt Q14416)
# T1 construct: expressed in transfected cells; host or cells: CHO cells (membrane preparation)
# Assay: [35S]GTPγS binding assay (GTPγS-PAM): positive allosteric modulation in presence of glutamate at EC25, membranes from transfected CHO cells
# Format: biochemical
# Conditions: in presence of mGluR2 agonist glutamate at predetermined EC25 concentration, averages of duplicate values of 11-concentration response curves, read-out: GTPgS - hR2 PAM pEC50 (converted)
# Source text: The compounds provided in the present invention are positive allosteric modulators of mGluR2. These compounds appear to potentiate glutamate responses by binding to an allosteric site other than the glutamate binding site. The response of mGluR2 to a concentration of glutamate is increased when compounds of Formula (I) are present. Compounds of Formula (I) are expected to have their effect substantially at mGluR2 by virtue of their ability to enhance the function of the receptor. The behaviour of positive allosteric modulators tested at mGluR2 using the [^35S]GTPγS binding assay method described below and which is suitable for the identification of such compounds, and more particularly the compounds according to Formula (I), are shown in Table 4.
# [^35S]GTPγS Binding Assay
# The [^35S]GTPγS binding is a functional membrane-based assay used to study G-protein coupled receptor (GPCR) function whereby incorporation of a non-hydrolysable form of GTP, [^35S]GTPγS (guanosine 5′-triphosphate, labelled with […] ^35S), is measured. The G-protein o subunit catalyzes the exchange of guanosine 5′-diphosphate (GDP) by guanosine triphosphate (GTP) and on activation of the GPCR by an agonist, [^35S]GTPγS, becomes incorporated and cannot be cleaved to continue the exchange cycle (Harper (1998) Current Protocols in Pharmacology 2.6.1-10, John Wiley & Sons, Inc.). […] Here we describe the use of the [^35S]GTPγS binding assay using membranes from cells transfected with the human mGluR2 receptor and adapted from Schaffhauser et al ((2003) Molecular Pharmacology 4:798-810) for the detection of the positive allosteric modulation (PAM) properties of the compounds of this invention.
# CHO-cells were cultured to pre-confluence and stimulated with 5 mM butyrate for 24 hours, prior to washing in PBS, and then collection by scraping in homogenisation buffer (50 mM Tris-HCl buffer, pH 7.4, 4° C.). Cell lysates were homogenized briefly (15 s) using an ultra-turrax homogenizer. The homogenate was centrifuged at 23 500×g for 10 minutes and the supernatant discarded. The pellet was resuspended in 5 mM Tris-HCl, pH 7.4 and centrifuged again (30 000×g, 20 min, 4° C.). The final pellet was resuspended in 50 mM HEPES, pH 7.4 and stored at −80° C. in appropriate aliquots before use. Protein concentration was determined by the Bradford method (Bio-Rad, USA) with bovine serum albumin as standard.
# Measurement of mGluR2 positive allosteric modulators in membranes containing human mGluR2 was performed using frozen membranes that were thawed and briefly homogenised prior to pre-incubation in 96-well microplates (15 μg/assay well, 30 minutes, 30° C.) in assay buffer (50 mM HEPES pH 7.4, 100 mM NaCl, 3 mM MgCl2, 50 μM GDP, 10 μg/ml saponin,) with increasing concentrations of positive allosteric modulator (from 0.3 nM to 50 μM) and either a minimal pre-determined concentration of glutamate (PAM assay), or no added glutamate. For the PAM assay, membranes were pre-incubated with glutamate at EC25 concentration, i.e. a concentration that gives 25% of the maximal response glutamate, and is in accordance to published data (Pin et al. (1999) Eur. J. Pharmacol. 375:277-294). After addition of [^35S]GTPγS (0.1 nM, f.c.) to achieve a total reaction volume of 200 μl, microplates were shaken briefly and further incubated to allow [^35S]GTPγS incorporation on activation (30 minutes, 30° C.). The reaction was stopped by rapid vacuum filtration over glass-fibre filter plates (Unifilter 96-well GF/B filter plates, Perkin-Elmer, Downers Grove, USA) microplate using a 96-well plate cell harvester (Filtermate, Perkin-Elmer, USA), and then by washing three times with 300 μl of ice-cold wash buffer (Na2PO4.2H2O 10 mM, NaH2PO4.H2O 10 mM, pH=7.4). Filters were then air-dried, and 40 μl of liquid scintillation cocktail (Microscint-O) was added to each well, and membrane-bound [^35S]GTPγS was measured in a 96-well scintillation plate reader (Top-Count, Perkin-Elmer, USA). […]
# T1 sequence (Q14416 19-872): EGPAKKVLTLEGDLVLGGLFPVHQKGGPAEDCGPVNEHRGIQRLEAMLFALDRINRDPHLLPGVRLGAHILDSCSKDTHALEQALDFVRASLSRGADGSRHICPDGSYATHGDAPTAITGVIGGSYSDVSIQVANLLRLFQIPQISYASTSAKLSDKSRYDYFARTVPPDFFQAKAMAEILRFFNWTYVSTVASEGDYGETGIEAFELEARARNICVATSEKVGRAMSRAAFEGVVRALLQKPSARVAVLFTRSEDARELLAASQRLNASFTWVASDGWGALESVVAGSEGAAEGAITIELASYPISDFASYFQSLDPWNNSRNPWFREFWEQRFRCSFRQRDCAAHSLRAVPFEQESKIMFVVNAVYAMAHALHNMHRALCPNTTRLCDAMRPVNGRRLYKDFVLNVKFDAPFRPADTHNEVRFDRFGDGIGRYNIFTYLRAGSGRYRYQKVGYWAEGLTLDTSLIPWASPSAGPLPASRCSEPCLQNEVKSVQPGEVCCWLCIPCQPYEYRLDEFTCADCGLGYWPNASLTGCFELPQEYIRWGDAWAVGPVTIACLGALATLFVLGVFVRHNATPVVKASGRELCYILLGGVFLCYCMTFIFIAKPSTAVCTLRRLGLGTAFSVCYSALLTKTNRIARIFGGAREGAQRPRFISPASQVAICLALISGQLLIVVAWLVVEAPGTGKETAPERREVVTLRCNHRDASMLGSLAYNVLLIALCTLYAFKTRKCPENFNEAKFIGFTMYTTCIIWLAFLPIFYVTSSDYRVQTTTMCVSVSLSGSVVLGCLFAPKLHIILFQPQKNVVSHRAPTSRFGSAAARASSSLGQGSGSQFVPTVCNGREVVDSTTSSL
row,EC50,Compound
1,631 nM,COCCCc1ccc(-c2ccn(CCC(C)C)c(=O)c2C#N)cc1 [1-106]
2,794 nM,CCCCn1ccc(-c2ccc3c(cnn3Cc3ccccn3)c2)c(C#N)c1=O [5-023]
3,501 nM,CC(C)CCn1ccc(Oc2ccc(N3CCCC3)cc2)c(C#N)c1=O [1-291]
4,63.1 nM,CC(C)CCn1ccc(OCc2ccc(SC(F)(F)F)cc2)c(C#N)c1=O [1-287]
5,631 nM,N#Cc1c(N2CCN(Cc3ccccc3)CC2)ccn(Cc2ccc(OC(F)(F)F)cc2)c1=O [2-042]
6,398 nM,COc1ccc(-c2ccn(CC3CCCCC3)c(=O)c2C#N)cc1 [1-012]
7,31.6 nM,CN(Cc1cccc(C(F)(F)F)c1)C1CCN(c2ccn(CCOc3ccccc3)c(=O)c2C#N)CC1 [4-065]
8,316 nM,CC(C)CCn1ccc(-c2ccc(CSc3ccncc3)cc2)c(C#N)c1=O [1-258]
9,158 nM,CCCCn1ccc(-c2ccc(Oc3ncccc3C(F)(F)F)cc2)c(C#N)c1=O [1-067]
10,2000 nM,COc1ccc(-c2ccn(Cc3ccccc3C)c(=O)c2C#N)cc1 [1-016]
11,1000 nM,COCCN(C)c1ccc(-c2ccn(CCC(C)C)c(=O)c2C#N)cc1OC [1-185]
12,631 nM,Cc1cc(OCC2CCN(c3ccn(Cc4ccc(OC(F)(F)F)cc4)c(=O)c3C#N)CC2)ccn1 [4-052]
13,5010 nM,COc1cc(-c2ccn(CCC(C)C)c(=O)c2C#N)ccc1OCCO [1-109]
14,200 nM,CC(C)CCn1ccc(C=Cc2ccccc2)c(C#N)c1=O [1-261]
15,1580 nM,CC(=O)N1CCc2cc(-c3ccn(CCC(C)C)c(=O)c3C#N)ccc21 [5-015]
16,1000 nM,CCCCn1ccc(-c2ccc(Cn3ccnc3C)cc2)c(C#N)c1=O [1-060]
17,501 nM,CC1CN(Cc2cc(F)cc(F)c2)CCN1c1ccn(Cc2ccc(OC(F)(F)F)cc2)c(=O)c1C#N (centres unmarked) [2-045]
18,1580 nM,CC(C)CCn1ccc(OCCOc2ccccc2)c(C#N)c1=O [1-280]
19,1580 nM,CC(=O)N1CCN(c2ccc(-c3ccn(CCC(C)C)c(=O)c3C#N)cc2)CC1 [1-231]
20,501 nM,CC(C)CCn1ccc(N2CCC(Oc3ccc(F)cc3)CC2)c(C#N)c1=O [4-018]
21,398 nM,CC(C)CCn1ccc(N2CCC(N(C)CCc3cccc(C(F)(F)F)c3)CC2)c(C#N)c1=O [4-032]
22,200 nM,CC(C)CCn1ccc(-c2ccc3sccc3c2)c(C#N)c1=O [1-259]
23,1000 nM,CC(C)CCn1ccc(-c2ccc(OCCO)cc2)c(C#N)c1=O [1-099]

row,EC50,Compound
1,63.1 nM,CC(C)CCn1ccc(-c2ccc(NCc3ccccc3)cc2)c(C#N)c1=O [1-194]
2,631 nM,N#Cc1c(N2CCN(Cc3ccccc3)CC2)ccn(CCOc2ccccc2)c1=O [2-053]
3,100 nM,CN(C)c1ccc(-c2ccn(CC3CCCCC3)c(=O)c2C#N)cc1 [1-010]
4,200 nM,CC(C)CCn1ccc(-c2ccc(N3CCCC3)cc2)c(C#N)c1=O [1-218]
5,1000 nM,CC(C)CCn1ccc(N2CCCN(c3ccccc3)CC2)c(C#N)c1=O [5-043]
6,1000 nM,CCCCn1ccc(N2CCN(c3nccc(OC)n3)CC2)c(C#N)c1=O [2-007]
7,200 nM,CC(C)CCn1ccc(-c2ccc(OCC3CC3)cc2)c(C#N)c1=O [1-133]
8,1260 nM,CC(C)CCn1ccc(N2CCN(Cc3ccc(F)c(F)c3)CC2)c(C#N)c1=O [2-015]
9,39.8 nM,CC(C)CCn1ccc(N2CCC3(CCc4ccccc43)CC2)c(C#N)c1=O [5-033]
10,3160 nM,Cc1ccc(C2(O)CCN(c3ccn(Cc4ccc(OC(F)(F)F)cc4)c(=O)c3C#N)CC2)cn1 [4-053]
11,794 nM,Cc1ccc(N2CCN(c3ccn(CCC(C)C)c(=O)c3C#N)CC2)nc1 [2-025]
12,5010 nM,CC(C)CCn1ccc(N2C[C@@H]3C[C@H]2CN3Cc2ccccc2)c(C#N)c1=O [5-004]
13,3160 nM,CC(C)CCn1ccc(N(C)Cc2ccccc2)c(C#N)c1=O [1-303]
14,251 nM,CC(C)CCn1ccc(N2CCc3ccccc3C2)c(C#N)c1=O [5-003]
15,50.1 nM,CC(C)CCn1ccc(N2CCC(OCc3ccc(OC(F)(F)F)cc3)CC2)c(C#N)c1=O [4-022]
16,1260 nM,CC(C)CCn1ccc(-c2ccc(N3CCN(c4ccncc4)CC3)cc2)c(C#N)c1=O [1-234]
17,1580 nM,N#Cc1c(N2CCN(Cc3ccccc3)CC2)ccn(Cc2ccc(F)cc2)c1=O [2-049]
18,100 nM,CC(C)CCn1ccc(N2CCC(N(C)Cc3cccc(C(F)(F)F)c3)CC2)c(C#N)c1=O [4-028]
19,631 nM,CC(=O)CCOc1ccc(-c2ccn(CCC(C)C)c(=O)c2C#N)cc1 [1-126]
20,200 nM,CC(C)CCn1ccc(N2CCN(CCc3ccccc3)CC2)c(C#N)c1=O [2-017]
21,501 nM,CC(C)CCn1ccc(-c2ccc(Oc3ccccn3)cc2)c(C#N)c1=O [1-154]
22,2000 nM,CC(C)CCn1ccc(N[C@@H]2C[C@H]2c2ccccc2)c(C#N)c1=O (racemic) [1-304]
23,3980 nM,N#Cc1c(N2CCN(c3ccccn3)CC2)ccn(Cc2ccc(F)cc2)c1=O [2-055]

row,EC50,Compound
1,398 nM,N#Cc1c(-c2ccc(Oc3ccnc(N4CCCC4)c3)cc2)ccn(CC2CC2)c1=O [1-005]
2,63.1 nM,CC(C)CCn1ccc(-c2ccc(Br)c(Br)c2)c(C#N)c1=O [1-092]
3,3980 nM,Cc1ccccc1Cn1ccc(-c2cccs2)c(C#N)c1=O [1-015]
4,3980 nM,CCCCn1ccc(-c2ccc(Oc3cnccn3)cc2)c(C#N)c1=O [1-076]
5,6310 nM,CC(C)CCn1ccc(N2CCOc3ccccc32)c(C#N)c1=O [5-030]
6,50.1 nM,CC(C)CCn1ccc(-c2ccc3c(ccn3-c3ccccc3)c2)c(C#N)c1=O [5-019]
7,3980 nM,COc1cc(-c2ccn(CCC(C)C)c(=O)c2C#N)ccc1CNC(C)=O [1-184]
8,1580 nM,CC(C)CCn1ccc(-c2ccc(-c3cnco3)cc2)c(C#N)c1=O [1-250]
9,631 nM,CCCCn1ccc(-c2ccc(Oc3ncccc3C#N)cc2)c(C#N)c1=O [1-071]
10,2000 nM,CC(C)CCn1ccc(-c2ccc3c(c2)CCN3)c(C#N)c1=O [5-014]
11,316 nM,CC(C)CCn1ccc(OC2CCN(Cc3cccc(C(F)(F)F)c3)CC2)c(C#N)c1=O [3-008]
12,200 nM,CC(C)CCn1ccc(Nc2ccc(Oc3ccccc3)cc2)c(C#N)c1=O [1-301]
13,316 nM,N#Cc1c(-c2ccc(Oc3ccnc(N4CCCCC4)c3)cc2)ccn(CC2CC2)c1=O [1-006]
14,1260 nM,CC(C)CCn1ccc(CCc2ccccc2)c(C#N)c1=O [1-260]
15,1260 nM,N#Cc1c(OC2CCN(Cc3cccc(C(F)(F)F)c3)CC2)ccn(CC2CC2)c1=O [3-012]
16,2000 nM,CC(=O)COc1ccc(-c2ccn(CCC(C)C)c(=O)c2C#N)cc1 [1-118]
17,2510 nM,CC(C)CCn1ccc(N2CCC(c3ccccc3)(N3CCOCC3)CC2)c(C#N)c1=O [4-044]
18,2510 nM,CC(C)CCn1ccc(N2CCN(C/C=C/c3ccccc3)CC2)c(C#N)c1=O [2-018]
19,79.4 nM,"CC(C)CCn1ccc(C#Cc2ccccc2)c(C#N)c1=O [1-267, 3-cyano-1-(3-methylbutyl)-4-(phenylethynyl)pyridine-2(1H)-one]"
20,63.1 nM,CC(C)CCn1ccc(N2CCC(c3ccccc3)CC2)c(C#N)c1=O [4-014]
21,1580 nM,COc1cc(-c2ccn(CCC(C)C)c(=O)c2C#N)ccc1OCc1cccnc1 [1-166]
22,631 nM,CC(C)CCn1ccc(-c2ccc(OCCC3(C)OCCO3)cc2)c(C#N)c1=O [1-136]
